One test has as its target IDH1 R132H (Homo sapiens, UniProt O75874, R132H). The test can be described thus: Assay for IDH1 R132H inhibitors (NADPH/aKG, resazurin detection). It counts as biochemical. Particulars: enzyme assay of Example 12; read-out: IDH1R132H IC50. The method in brief: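 Read-out is resorufin fluorescence (Ex544/Em590) 5 min after adding a 30 μM resazurin detection mix. Before that, mutant enzyme (0.2 μg/ml in its mix) ran 50 min at room temperature with compound, 8 uM NADPH and 2 mM aKG (mix levels) in Tris pH 7.5 with NaCl, MgCl2, BSA.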
(The colour change of resazurin is a common sign of viable cells or microbes.)

The next test relates to U87MG cells. In words: Cellular assay for IDH1m inhibitors: inhibition of 2-HG production (LC-MS, 48 hours) in U87MG cells. It is filed as cell-based. As to conditions: Homo sapiens, U-87 MG, inhibition of 2-HG production, U87R132H cells; read-out: U87R132H IC50. The method in brief:
(§1)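 Read-out: 2-HG in culture medium by LC-MS after 48 h compound exposure; IC50 = 50% reduction vs DMSO control. Cells plated 5000/well in DMEM/10% FBS, 37 °C, 5% CO2; DMSO 0.2% final.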

For the next test, the system named is HT1080 cells. The test can be described thus: Cellular assay for IDH1m inhibitors: inhibition of 2-HG production (LC-MS, 48 hours) in HT1080 cells. It is filed as cell-based. Particulars: Homo sapiens, HT-1080; inhibition of 2-HG production, HT1080 cells; read-out: HT1080 IC50. The method in brief:
as §1

The structures appear in SMILES notation. pIC50: −log10 of the molar value.

IDH1 R132H, sequence (O75874 whole entry R132H): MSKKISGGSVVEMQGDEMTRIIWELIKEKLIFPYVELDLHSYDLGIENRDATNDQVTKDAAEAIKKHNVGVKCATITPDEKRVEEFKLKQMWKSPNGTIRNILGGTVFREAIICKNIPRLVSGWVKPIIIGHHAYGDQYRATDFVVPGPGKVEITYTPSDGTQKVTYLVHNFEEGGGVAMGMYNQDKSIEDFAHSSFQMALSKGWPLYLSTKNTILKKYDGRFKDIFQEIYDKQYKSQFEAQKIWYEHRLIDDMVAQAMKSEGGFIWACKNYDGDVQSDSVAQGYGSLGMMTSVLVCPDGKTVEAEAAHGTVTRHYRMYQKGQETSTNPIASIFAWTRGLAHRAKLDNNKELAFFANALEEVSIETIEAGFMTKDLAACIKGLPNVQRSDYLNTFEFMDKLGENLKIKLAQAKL

The term pIC50 denotes −log10 of the IC50, conventionally taken in molar units. Turning to `COCCC(=O)N1CCN(c2nc(C3CC3)c(-c3ccc4c(c3)NC(=O)C4)cc2C#N)C[C@H]1C` [Compound 313, (R)-6-cyclopropyl-2-(4-(3-methoxypropanoyl)-3-methylpiperazin-1-yl)-5-(2-oxoindolin-6-yl)nicotinonitrile], the results for the pIC50 on IDH1 R132H, in the test on U87MG cells and in the test on HT1080 cells were > 6.30, 6.00 to 6.30 and 5.00 to 6.00, respectively.

For the compound `C=Cc1nccc(-c2cc(C#N)c(N3CCN(C(=O)C4CC4)[C@H](C4CC4)C3)nc2C2CC2)n1` [Compound 496, (R)-2-(4-(cyclopropanecarbonyl)-3-cyclopropylpiperazin-1-yl)-6-cyclopropyl-5-(2-vinylpyrimidin-4-yl)nicotinonitrile], the pIC50 on IDH1 R132H was 6.00 to 6.30; in the test on U87MG cells, > 6.30; in the test on HT1080 cells it was 6.00 to 6.30.

In the case of `COCCC(=O)N1CCN(c2nc(C3CC3)c(OCc3cccc(OC)c3)cc2C#N)C[C@H]1C` [Compound 280, (R)-6-cyclopropyl-5-(3-methoxybenzyloxy)-2-(4-(3-methoxypropanoyl)-3-methylpiperazin-1-yl)nicotinonitrile], the pIC50 was > 6.30 at IDH1 R132H, 5.00 to 6.00 in the test on U87MG cells and 5.00 to 6.00 in the test on HT1080 cells.

On to `COCCC(=O)N1CCN(c2nc(C3CC3)c(-c3cccc4cnc(C)cc34)cc2C#N)C[C@H]1C` [Compound 433, (R)-6-cyclopropyl-2-(4-(3-methoxypropanoyl)-3-methylpiperazin-1-yl)-5-(3-methylisoquinolin-5-yl)nicotinonitrile], for which the pIC50 on IDH1 R132H, in the test on U87MG cells and in the test on HT1080 cells was > 6.30 each time.

As for `C=Cc1cc(-c2cc(C#N)c(N3CCN(C(=O)CCOC)[C@H](C)C3)nc2C2CC2)c2cccnc2n1` [Compound 599, (R)-6-cyclopropyl-2-(4-(3-methoxypropanoyl)-3-methylpiperazin-1-yl)-5-(2-vinyl-1,8-naphthyridin-4-yl)nicotinonitrile], the pIC50 on IDH1 R132H, in the test on U87MG cells and in the test with HT1080 cells was > 6.30 throughout.

Take `COCCC(=O)N1CCN(c2nc(C3CC3)c(-c3ccc4c(c3)OCO4)c(C)c2C#N)C[C@H]1C` [Compound 269, (R)-5-(benzo[d][1,3]dioxol-5-yl)-6-cyclopropyl-2-(4-(3-methoxypropanoyl)-3-methylpiperazin-1-yl)-4-methylnicotinonitrile]: the pIC50 on IDH1 R132H is > 6.30; with U87MG cells, 5.00 to 6.00; with HT1080 cells, 5.00 to 6.00.

Consider `C=CS(=O)(=O)N(c1cccc(-c2cc(C#N)c(N3CCN(C(=O)C4CC4)[C@H](C4CC4)C3)nc2C2CC2)c1)S(=O)(=O)C=C` [Compound 452, (R)—N-(3-(5-cyano-6-(4-(cyclopropanecarbonyl)-3-cyclopropylpiperazin-1-yl)-2-cyclopropylpyridin-3-yl)phenyl)-N-(vinylsulfonyl)ethenesulfonamide], for which the pIC50 at IDH1 R132H is > 6.30; in the test on U87MG cells, 5.00 to 6.00; in the test with HT1080 cells, 5.00 to 6.00.

With `COCCC(=O)N1CCN(c2nc(C3CC3)c(-c3cccc4cnccc34)cc2C#N)C[C@H]1C` [Compound 286, (R)-6-cyclopropyl-5-(isoquinolin-5-yl)-2-(4-(3-methoxypropanoyl)-3-methylpiperazin-1-yl)nicotinonitrile], the pIC50 at IDH1 R132H, in the test on U87MG cells and in the test with HT1080 cells was > 6.30 throughout.

For `C=CS(=O)(=O)Nc1cccc(-c2c(C3CC3)nc(N3CCN(C(=O)C4CC4)[C@H](C4CC4)C3)c(C#N)c2C)c1` [Compound 470, (R)—N-(3-(5-cyano-6-(4-(cyclopropanecarbonyl)-3-cyclopropylpiperazin-1-yl)-2-cyclopropyl-4-methylpyridin-3-yl)phenyl)ethenesulfonamide], the pIC50 was > 6.30 on IDH1 R132H, 5.00 to 6.00 with U87MG cells and 5.00 to 6.00 in the test with HT1080 cells.

`COCC(=O)N1CCN(c2nc(C3CC3)c(Nc3ccnc(Cl)c3)cc2C#N)C[C@H]1C1CC1` [Compound 718, (R)-5-((2-chloropyridin-4-yl)amino)-6-cyclopropyl-2-(3-cyclopropyl-4-(2-methoxyacetyl)piperazin-1-yl)nicotinonitrile]: the negative-log IC50 (pIC50) at IDH1 R132H was > 6.30; in the test on U87MG cells it was > 6.30; with HT1080 cells, 6.00 to 6.30.

`N#Cc1cc(Oc2ccnc(Cl)c2)c(C2CC2)nc1N1CCN(C(=O)CCO)[C@H](C2CC2)C1` [Compound 694, (R)-5-(2-chloropyridin-4-yloxy)-6-cyclopropyl-2-(3-cyclopropyl-4-(3-hydroxypropanoyl)piperazin-1-yl) nicotinonitrile]: the values for the pIC50 at IDH1 R132H, with U87MG cells and with HT1080 cells were > 6.30, > 6.30 and 6.00 to 6.30, respectively.

Take `C=Cc1cc(-c2c(C3CC3)nc(N3CCN(C(=O)CCc4ccco4)[C@H](C4CC4)C3)c(C#N)c2C)ccn1` [Compound 796, (R)-2-cyclopropyl-6-(3-cyclopropyl-4-(3-(furan-2-yl)propanoyl)piperazin-1-yl)-4-methyl-2′-vinyl-3,4′-bipyridine-5-carbonitrile]: the negative logarithm of the IC50 (pIC50) at IDH1 R132H, with U87MG cells and in the test on HT1080 cells was > 6.30 throughout.

In the case of `C=Cc1cnnc(-c2cc(C#N)c(N3CCN(C(=O)COC)[C@H](C4CC4)C3)nc2C2CC2)c1` [Compound 724, (R)-6-cyclopropyl-2-(3-cyclopropyl-4-(2-methoxyacetyl)piperazin-1-yl)-5-(5-vinylpyridazin-3-yl)nicotinonitrile], the pIC50 on IDH1 R132H, with U87MG cells and with HT1080 cells was > 6.30 each time.

In the case of `C=Cc1cc(-c2cc(C#N)c(N3CCN(C(=O)CCO)[C@H](C(C)C)C3)nc2C2CC2)ccn1` [Compound 721, (R)-2-cyclopropyl-6-(4-(3-hydroxypropanoyl)-3-isopropylpiperazin-1-yl)-2′-vinyl-3,4′-bipyridine-5-carbonitrile], the negative-log IC50 (pIC50) at IDH1 R132H, with U87MG cells and with HT1080 cells was > 6.30 throughout.

As for `COCCC(=O)N1CCN(c2nc(C3CC3)c(-c3cccc4ncccc34)cc2C#N)C[C@H]1C` [Compound 288, (R)-6-cyclopropyl-2-(4-(3-methoxypropanoyl)-3-methylpiperazin-1-yl)-5-(quinolin-5-yl)nicotinonitrile], the pIC50 on IDH1 R132H, with U87MG cells and with HT1080 cells was > 6.30 in each case.

Take `C=Cc1cc(-c2cc(C#N)c(N3CCN(C(=O)CCOC)[C@H](C4CC4)C3)nc2C2CC2)ccn1` [Compound 530, (R)-2-cyclopropyl-6-(3-cyclopropyl-4-(3-methoxypropanoyl)piperazin-1-yl)-2′-vinyl-3,4′-bipyridine-5-carbonitrile]: the pIC50 on IDH1 R132H, in the test with U87MG cells and in the test with HT1080 cells was > 6.30 each time.

On to `C=Cc1ccnc(Nc2cc(C#N)c(N3CCN(C(=O)CCOC)[C@H](C)C3)nc2C2CC2)n1` [Compound 736, (R)-6-cyclopropyl-2-(4-(3-methoxypropanoyl)-3-methylpiperazin-1-yl)-5-((4-vinylpyrimidin-2-yl)amino)nicotinonitrile], for which the pIC50 at IDH1 R132H, in the test on U87MG cells and in the test on HT1080 cells was > 6.30 throughout.

As for `C[C@@H]1CN(c2nc(C3CC3)c(-c3cccc4cnccc34)cc2C#N)CCN1C(=O)CC(F)(F)F` [Compound 386, (R)-6-cyclopropyl-5-(isoquinolin-5-yl)-2-(3-methyl-4-(3,3,3-trifluoropropanoyl)piperazin-1-yl)nicotinonitrile], the pIC50 was > 6.30 at IDH1 R132H, 6.00 to 6.30 in the test on U87MG cells and 5.00 to 6.00 in the test on HT1080 cells.

Regarding `COCCC(=O)N1CCN(c2nc(C3CC3)c(OCc3cccnc3)cc2C#N)C[C@H]1C` [Compound 304, (R)-6-cyclopropyl-2-(4-(3-methoxypropanoyl)-3-methylpiperazin-1-yl)-5-(pyridin-3-ylmethoxy)nicotinonitrile], the pIC50 is > 6.30 at IDH1 R132H, 6.00 to 6.30 in the test with U87MG cells and 5.00 to 6.00 in the test on HT1080 cells.

As to `C=Cc1cc(Cc2cc(C#N)c(N3CCN(C(=O)CCO)[C@H](C4CC4)C3)nc2C2CC2)ccn1` [Compound 697, (R)-6-cyclopropyl-2-(3-cyclopropyl-4-(3-hydroxypropanoyl)piperazin-1-yl)-5-((2-vinylpyridin-4-yl)methyl)nicotinonitrile], the negative logarithm of the IC50 (pIC50) on IDH1 R132H, in the test on U87MG cells and with HT1080 cells was > 6.30 throughout.

For `C=Cc1cc(-c2cc(C#N)c(N3CCN(C(=O)CC[C@@H]4CCO4)[C@H](C4CC4)C3)nc2C2CC2)ccn1` [Compound 794, 2-cyclopropyl-6-((R)-3-cyclopropyl-4-(3-((R)-oxetan-2-yl)propanoyl)piperazin-1-yl)-2′-vinyl-[3,4′-bipyridine]-5-carbonitrile], the pIC50 at IDH1 R132H, in the test on U87MG cells and in the test with HT1080 cells was > 6.30 each time.

With `COCCC(=O)N1CCN(c2nc(C3CC3)c(-c3ccc(NC(C)=O)cc3)c(C)c2C#N)C[C@H]1C` [Compound 326, (R)—N-(4-{5-cyano-2-cyclopropyl-6-[4-(3-methoxy-propionyl)-3-methyl-piperazin-1-yl]-4-methyl-pyridin-3-yl}-phenyl)-acetamide], the pIC50 on IDH1 R132H was > 6.30; with U87MG cells, > 6.30; in the test on HT1080 cells, 6.00 to 6.30.

Consider `C=Cc1cc(Nc2c(C3CC3)nc(N3CCN(C(=O)CCO)[C@H](C4CC4)C3)c(C#N)c2C)ccn1` [Compound 742, (R)-6-cyclopropyl-2-(3-cyclopropyl-4-(3-hydroxypropanoyl)piperazin-1-yl)-4-methyl-5-(2-vinylpyridin-4-ylamino)nicotinonitrile], for which the pIC50 on IDH1 R132H, in the test on U87MG cells and in the test on HT1080 cells was > 6.30 each time.
